Reference: ChEMBL document CHEMBL1122152, “Synthesis of pseudo cofactor analogues as potential inhibitors of the folate enzymes” (J Med Chem, 1982)
Values joined by “and” are separate entries in the source; they are usually repeats but may differ in a detail not shown here. Identical values can stand only once.

How the values were obtained:
Sus scrofa [1] = organism: Sus scrofa; assay: Percent inhibition was measured against formyl tetrahydrofolate synthase (porcine liver) enzyme at 10E-4 M inhibitory concentration
Columba livia [2] = assay: Percent inhibition was measured against glycinamide ribotide transformylase (pigeon liver) enzyme at 10E-4 M inhibitory concentration
Sus scrofa [3] = organism: Sus scrofa; assay: Percent inhibition was measured against Serine transhydroxymethylase (porcine liver) enzyme at 10E-4 M inhibitory concentration
[4] = target: T1, C-1-tetrahydrofolate synthase, cytoplasmic (Homo sapiens) (UniProt P11586); assay: Percent inhibition was measured against 5,10-Methylene Tetrahydrofolate Cyclohydrolase (porcine liver) enzyme at 10E-6 M inhibitory concentration; conditions: Sus scrofa; target entry is the homologue from another species
T1 sequence (whole entry): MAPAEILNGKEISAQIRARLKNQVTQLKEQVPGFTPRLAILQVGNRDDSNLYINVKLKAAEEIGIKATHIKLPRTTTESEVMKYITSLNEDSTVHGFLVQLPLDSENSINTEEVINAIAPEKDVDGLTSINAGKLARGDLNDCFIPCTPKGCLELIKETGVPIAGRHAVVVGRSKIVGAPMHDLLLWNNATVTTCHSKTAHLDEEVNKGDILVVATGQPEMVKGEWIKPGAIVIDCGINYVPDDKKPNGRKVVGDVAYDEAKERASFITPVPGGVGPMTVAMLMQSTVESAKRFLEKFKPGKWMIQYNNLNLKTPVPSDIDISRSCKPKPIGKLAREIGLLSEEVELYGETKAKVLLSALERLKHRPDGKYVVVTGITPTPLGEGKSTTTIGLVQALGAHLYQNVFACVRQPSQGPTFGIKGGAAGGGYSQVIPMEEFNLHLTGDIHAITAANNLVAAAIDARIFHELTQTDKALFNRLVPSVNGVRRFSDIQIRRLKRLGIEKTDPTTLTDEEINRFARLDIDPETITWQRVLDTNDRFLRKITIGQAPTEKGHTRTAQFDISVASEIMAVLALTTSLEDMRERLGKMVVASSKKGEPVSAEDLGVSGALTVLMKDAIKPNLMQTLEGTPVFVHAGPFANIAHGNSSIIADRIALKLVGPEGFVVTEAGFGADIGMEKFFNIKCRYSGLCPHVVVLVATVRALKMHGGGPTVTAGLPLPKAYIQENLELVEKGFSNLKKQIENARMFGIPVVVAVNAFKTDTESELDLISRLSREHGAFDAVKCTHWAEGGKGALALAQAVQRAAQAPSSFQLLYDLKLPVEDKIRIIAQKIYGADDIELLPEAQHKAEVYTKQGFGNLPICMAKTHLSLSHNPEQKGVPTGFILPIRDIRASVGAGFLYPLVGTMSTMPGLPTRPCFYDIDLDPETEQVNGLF

[5] = system: formyltetrahydrofolate synthetase (Mus musculus); assay: Percent inhibition was measured against formyl tetrahydrofolate synthase (L1210 tumor tissue) enzyme at 10E-4 M inhibitory concentration
Sus scrofa [6] = organism: Sus scrofa; assay: Percent inhibition was measured against methionine synthetase (porcine kidney)enzyme at 10E-4 M inhibitory concentration
[7] = target: T1, C-1-tetrahydrofolate synthase, cytoplasmic (Homo sapiens); assay: Percent inhibition was measured against 5,10-Methylene Tetrahydrofolate Cyclohydrolase (L1210 tumor tissue) enzyme at 10E-5 M inhibitory concentration
Columba livia [8] = assay: Percent inhibition was measured against 5-amino-4-imidazolecarboxamide ribotide transformylase(pigeon liver) enzyme at 10E-5 M inhibitory concentration
[9] = target: T1, C-1-tetrahydrofolate synthase, cytoplasmic (Homo sapiens); assay: Percent inhibition was measured against 5,10-Methylene Tetrahydrofolate Cyclohydrolase (L1210 tumor tissue) enzyme at 10E-6 M inhibitory concentration; conditions: Sus scrofa
[10] = target: T1, C-1-tetrahydrofolate synthase, cytoplasmic (Homo sapiens); assay: Percent inhibition was measured against 5,10-Methylene Tetrahydrofolate Cyclohydrolase (porcine liver) enzyme at 10E-7 M inhibitory concentration; conditions: Sus scrofa; target entry is the homologue from another species
Sus scrofa [11] = organism: Sus scrofa; assay: Percent inhibition was measured against 5,10-Methylene Tetrahydrofolate Reductase (porcine kidney) enzyme at 10E-4 M inhibitory concentration
Thymidylate synthase = assay: Percent inhibition was measured against Thymidylate synthase (calf thymus) enzyme at 10E-4 M inhibitory concentration
[12] = target: Dihydrofolate reductase (Bos taurus) (UniProt P00376); assay: Percent inhibition was measured against Dihydrofolate reductase (bovine liver) enzyme at 10E-4 M inhibitory concentration
Dihydrofolate reductase (Bos taurus), sequence (P00376 whole entry, looked up): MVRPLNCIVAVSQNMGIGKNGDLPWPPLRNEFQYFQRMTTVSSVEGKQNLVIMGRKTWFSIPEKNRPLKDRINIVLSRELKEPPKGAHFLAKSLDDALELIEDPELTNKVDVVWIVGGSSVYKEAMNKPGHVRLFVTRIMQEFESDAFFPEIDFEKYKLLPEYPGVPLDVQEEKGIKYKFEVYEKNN

[13] = Percent inhibition was measured against 5,10-Methylene Tetrahydrofolate Cyclohydrolase (L1210 tumor tissue) enzyme at 10E-6 M inhibitory concentration
[14] = target: T1, C-1-tetrahydrofolate synthase, cytoplasmic (Homo sapiens); assay: (§1) Percent inhibition was measured against 5,10-Methylene Tetrahydrofolate Cyclohydrolase (porcine liver) enzyme at 10E-4 M inhibitory concentration; conditions: Sus scrofa; target entry is the homologue from another species
[15] = target: T1, C-1-tetrahydrofolate synthase, cytoplasmic (Homo sapiens); assay: as §1; conditions: Sus scrofa; target entry is the homologue from another species; remark: listed apart in the source
Sus scrofa [16] = organism: Sus scrofa; assay: Percent inhibition was measured against Serine transhydroxymethylase (porcine liver) enzyme. at 10E-4 M inhibitory concentration
Columba livia [17] = assay: Percent inhibition was measured against 5-amino-4-imidazolecarboxamide ribotide transformylase(pigeon liver) enzyme at 10E-4 M inhibitory concentration
[18] = target: T1, C-1-tetrahydrofolate synthase, cytoplasmic (Homo sapiens); assay: Percent inhibition was measured against 5,10-Methylene Tetrahydrofolate Cyclohydrolase (L1210 tumor tissue) enzyme at 10E-4 M inhibitory concentration
Columba livia [19] = assay: Percent inhibition was measured against 5-amino-4-imidazolecarboxamide ribotide transformylase(pigeon liver) enzyme.; conditions: concentration not given here
[20] = target: T1, C-1-tetrahydrofolate synthase, cytoplasmic (Homo sapiens); assay: Percent inhibition was measured against 5,10-Methylene Tetrahydrofolate Cyclohydrolase (A,porcine liver) enzyme.; conditions: Sus scrofa; target entry is the homologue from another species; concentration not given here
Sus scrofa [21] = organism: Sus scrofa; assay: Percent inhibition was measured against methionine synthetase (porcine kidney)enzyme.; conditions: concentration not given here
[22] = target: Thymidylate synthase (Homo sapiens) (UniProt P04818); assay: Percent inhibition was measured against Thymidylate synthase (calf thymus) enzyme; conditions: concentration not given here
Thymidylate synthase (Homo sapiens), sequence (P04818 2-313 limits assumed): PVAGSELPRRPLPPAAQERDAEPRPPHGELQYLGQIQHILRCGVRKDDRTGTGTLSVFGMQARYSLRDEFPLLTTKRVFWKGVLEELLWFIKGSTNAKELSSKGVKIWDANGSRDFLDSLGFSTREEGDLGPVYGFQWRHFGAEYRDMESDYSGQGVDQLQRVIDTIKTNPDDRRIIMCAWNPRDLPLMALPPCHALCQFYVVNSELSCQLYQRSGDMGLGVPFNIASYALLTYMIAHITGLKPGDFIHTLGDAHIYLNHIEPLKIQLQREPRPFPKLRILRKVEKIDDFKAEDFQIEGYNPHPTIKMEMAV

Sus scrofa [23] = organism: Sus scrofa; assay: Percent inhibition was measured against formyl tetrahydrofolate synthase (porcine liver) enzyme.; conditions: concentration not given here
Columba livia [24] = assay: Percent inhibition was measured against glycinamide ribotide transformylase (pigeon liver) enzyme.; conditions: concentration not given here
Sus scrofa [25] = organism: Sus scrofa; assay: Percent inhibition was measured against 5,10-Methylene Tetrahydrofolate Reductase (porcine kidney) enzyme.; conditions: concentration not given here
[26] = target: T1, C-1-tetrahydrofolate synthase, cytoplasmic (Homo sapiens); assay: Percent inhibition was measured against 5,10-Methylene Tetrahydrofolate Cyclohydrolase (porcine liver) enzyme.; conditions: Sus scrofa; target entry is the homologue from another species; concentration not given here
Sus scrofa [27] = organism: Sus scrofa; assay: as §1
[28] = target: T1, C-1-tetrahydrofolate synthase, cytoplasmic (Homo sapiens); assay: Percent inhibition was measured against 5,10-Methylene Tetrahydrofolate Cyclohydrolase (porcine liver) enzyme at 10E-5 M inhibitory concentration; conditions: Sus scrofa; target entry is the homologue from another species

SMILES | inhibition (Sus scrofa [1]) | inhibition (Columba livia [2]) | inhibition [4] | inhibition [5] | inhibition (Sus scrofa [6]) | inhibition (Columba livia [8]) | inhibition [9] | inhibition (Sus scrofa [11]) | inhibition (Thymidylate synthase) | inhibition [12] | inhibition [15] | inhibition (Sus scrofa [16]) | inhibition (Columba livia [17]) | inhibition [18] | further results
N=C1N(c2ccc(C(=O)NC(CCC(=O)O)C(=O)O)cc2)CC2CNc3nc(N)[nH]c(=O)c3N12 (stereo not drawn) | 21% | 0% | – | 12% | 4% | – | – | 0% | 0% | 0% | 24% | 30% | 13% | 24% | inhibition [13]: 43%; inhibition [14]: 61%
Nc1nc2c(c(=O)[nH]1)N1C=[N+](c3ccc(C(=O)NC(CCC(=O)O)C(=O)O)cc3)CC1CN2 (stereo not drawn) | – | – | – | – | – | – | – | – | – | 15% | – | 10% | – | – | inhibition (Columba livia [19]): 19%; inhibition [20]: 9%; inhibition (Sus scrofa [21]): 22%; inhibition [22]: 0%; inhibition (Sus scrofa [23]): 0%; inhibition (Columba livia [24]): 0%; inhibition (Sus scrofa [25]): 40%; inhibition [26]: 0%
Nc1nc2c(c(=O)[nH]1)N1C(=S)N(c3ccc(C(=O)NC(CCC(=O)O)C(=O)O)cc3)CC1CN2 (stereo not drawn) | – | 11% | 24% | 13% | 5% | 37% | 50% | 55% | 8% | 30% | – | 0% | – | 12% | inhibition (Sus scrofa [27]): 24%; inhibition [28]: 27%

Now from value to compound, other results behind:

inhibition (Sus scrofa [1]) | inhibition (Columba livia [2]) | inhibition [4] | inhibition [5] | inhibition (Sus scrofa [6]) | inhibition (Columba livia [8]) | inhibition [9] | inhibition (Sus scrofa [11]) | inhibition (Thymidylate synthase) | inhibition [12] | inhibition [15] | inhibition (Sus scrofa [16]) | inhibition (Columba livia [17]) | inhibition [18] | SMILES | further results
15% | 0% | 24% | 16% | 2% | 0% | 48% | 41% | 25% | 16% | – | – | – | – | Nc1nc2c(c(=O)[nH]1)N1C(=O)N(c3ccc(C(=O)NC(CCC(=O)O)C(=O)O)cc3)CC1CN2 (stereo not drawn) | inhibition (Sus scrofa [3]): 40%; inhibition [7]: 51%; inhibition [10]: 48%
0% | 0% | – | – | 10% | – | – | 20% | 16% | 13% | 3% and 0% | 10% | 33% | – | Nc1nc2c(c(=O)[nH]1)N1CCN(c3ccc(C(=O)NC(CCC(=O)O)C(=O)O)cc3)CC1CN2 (stereo not drawn) | –
